The text below walks through data of patent US20250249025A1, “DRUG DELIVERY CARRIER UTILIZING PROPERTY OF D-ALLOSE BEING UPTAKEN BY CANCER CELL, DRUG DELIVERY METHOD, AND COMPOSITION FOR TREATING RENAL CELL CARCINOMA” (NATIONAL UNIVERSITY CORPORATION KAGAWA UNIVERSITY, priority 2019, published 2025).

Type in all cases: cell-based
Data set [1] deals with human bladder carcinoma cell line RT112. Nature of the data set: Rare sugar uptake experiment, sugar content in disrupted cell suspension of RT112. The settings on record: RT112, 48 hours; for D-glucose content in cell: named sugar added to RPMI-1640 at 10 mM, HPLC after ABEE labeling. As for the experimental part: (§1) An uptake amount of a rare sugar, which had been added to a medium, into carcinoma cells was analyzed using the cell lines of three types of cancers. As the rare sugar, four kinds, that is, D-allose, D-allulose (D-psicose), L-allulose (L-psicose), and allitol were used, while D-glucose and fructose were used as a monosaccharide which was not a rare sugar.
(§2) Cells of each of the cell lines were cultured in RPMI-1640 media and during culturing, six sugars were each added to the resulting media and cultured. After culturing, an amount of each sugar taken up into the cells was analyzed. The medium to which no sugar was added during culturing was used as a control.
(§3) Used were human bladder carcinoma cell lines (RT112, 253), and J82), human prostatic carcinoma cell lines (LNCa, Du145, and PC-3), and human renal cell carcinoma cell lines (ACHN, Caki-I, and Caki-II).
(§4) After cells were cultured in RPMI-1640 (2000 mg D-glucose/L) media, the above monosaccharides and rare sugars were added to the resulting media, respectively. Described specifically, they were following seven combinations: RPMI-1640 alone (control), RPMI-1640+D-glucose, RPMI-1640+L-allulose, RPMI-1640+D-allulose, RPMI-1640+D-fructose, RPMI-1640+D-allose, and RPMI-1640+D-allitol. The final concentration of the sugar in the medium was adjusted to 10 mM and no sugar was added in the control.
(§5) Five-ml portions of a 3.0×10^4 cells/ml cell suspension prepared using RPMI-1640 were seeded in dishes having a diameter of 6 cm (1.5×10^5 cells/dish) and cultured for 24 hours in the RPMI-1640 medium containing 2000 mg/l of D-glucose as a nutrient source. Twenty-four hours later, the media were changed to the culture solutions containing the monosaccharides and rare sugars described above in 2), respectively, followed by culturing for 48 hours.
(§6) After culturing for 48 hours, the attached human carcinoma cells were mechanically separated and collected in a Spitz tube together with the culture solution and floating cells. After the supernatant formed by centrifugation (4° C., 1200 rpm, and 5 minutes) was removed to obtain cell pellets alone, 5 ml of a phosphate buffer physiological saline (PBS) was added for the purpose of washing to obtain a cell suspension of the cell pellets. A gain, the resulting cell suspension was centrifuged at 4° C. and 1200 rpm for 5 minutes and the supernatant was removed. To the cell pellets after washing was added 1 ml of pure water to suspend them therein. Ultrasonic disruption (intensity: 40%, 30 seconds) was then performed and the monosaccharide in the disrupted cell suspension was labeled with ABEE, followed by analysis by HPLC. From the area thus obtained, the sugar content in the cells was determined using a calibration curve. With respect to the ketose, two peaks were found after labeling with ABEE so that the sugar content in the cells was determined from the calibration curves of both peaks.

Data set [2] deals with human bladder carcinoma cell line 253J. Nature of the data set: Rare sugar uptake experiment, sugar content in disrupted cell suspension of 253J. The following applies: 253J, 48 hours; for D-glucose content in cell: named sugar added to RPMI-1640 at 10 mM, HPLC after ABEE labeling. Here is the method: as §1, §2, §3, §4, §5, §6
Data set [3] deals with human bladder carcinoma cell line J82. Nature of the data set: Rare sugar uptake experiment, sugar content in disrupted cell suspension of J82. The settings on record: J82, 48 hours; for D-glucose content in cell: named sugar added to RPMI-1640 at 10 mM, HPLC after ABEE labeling. As for the experimental part: as §1, §2, §3, §4, §5, §6
The subject of data set [4] is human prostate carcinoma cell line LNCa. Nature of the data set: Rare sugar uptake experiment, sugar content in disrupted cell suspension of LNCa. The following applies: LNCa, 48 hours; for D-glucose content in cell: named sugar added to RPMI-1640 at 10 mM, HPLC after ABEE labeling. Here is the method:
as §1, §2, §3, §4, §5, §6

The test system of data set [5] is human prostate carcinoma cell line Du145. Nature of the data set: Rare sugar uptake experiment, sugar content in disrupted cell suspension of Du145. The following applies: Du145, 48 hours; for D-glucose content in cell: named sugar added to RPMI-1640 at 10 mM, HPLC after ABEE labeling. Here is the method: as §1, §2, §3, §4, §5, §6
For data set [6], the system named is human prostate carcinoma cell line PC-3. Nature of the data set: Rare sugar uptake experiment, sugar content in disrupted cell suspension of PC-3. The settings on record: PC-3, 48 hours; for D-glucose content in cell: named sugar added to RPMI-1640 at 10 mM, HPLC after ABEE labeling. Here is the method:
as §1, §2, §3, §4, §5, §6

The test system of data set [7] is human renal cell carcinoma cell line ACHN. Kind of data set: Rare sugar uptake experiment, sugar content in disrupted cell suspension of ACHN. The settings on record: ACHN, 48 hours; for D-glucose content in cell: named sugar added to RPMI-1640 at 10 mM, HPLC after ABEE labeling. As for the experimental part:
as §1, §2, §3, §4, §5, §6

Data set [8] has as its system human renal cell carcinoma cell line Caki-I. Kind of data set: Rare sugar uptake experiment, sugar content in disrupted cell suspension of Caki-I. The following applies: Caki-I, 48 hours; for D-glucose content in cell: named sugar added to RPMI-1640 at 10 mM, HPLC after ABEE labeling. As for the experimental part: as §1, §2, §3, §4, §5, §6
Data set [9] has as its system human renal cell carcinoma cell line Caki-II. Nature of the data set: Rare sugar uptake experiment, sugar content in disrupted cell suspension of Caki-II. The settings on record: Caki-II, 48 hours; for D-glucose content in cell: named sugar added to RPMI-1640 at 10 mM, HPLC after ABEE labeling. Here is the method:
as §1, §2, §3, §4, §5, §6

Setting [10] is: sugar added to RPMI-1640 at 10 mM, ketoses: range from two peaks.

Consider `O=C(CO)[C@H](O)[C@H](O)[C@H](O)CO` [D-allulose], for which the “D-glucose content in cell” value in [1] is 3.4 µg; in data set [2], 0.6 µg; in [3], 2.1 µg; in data set [4] it was 7.5 µg; in [5], 3.9 µg; in data set [6], 1.6 µg. Further, the entries for the “D-glucose content in cell” value in data set [7], in data set [8] and in data set [9] were 1.9 µg, 2.3 µg and 3.1 µg, respectively.

As for `O=C(CO)[C@@H](O)[C@H](O)[C@H](O)CO` [D-fructose], the “D-glucose content in cell” value was 4.4 µg in [1]; 3.3 µg in [2]; 2.7 µg in data set [3]; 4.1 µg in data set [4]; 4.2 µg in [5]; 2.7 µg in [6]. The “D-glucose content in cell” value in data set [7] amounted to 2.1 µg; in [8], 2.5 µg; in [9] it was 3.6 µg. Besides, the “Content in cell of the added sugar” value in data set [1] (setting [10]) was 12.7 to 15.7 µg; in data set [2] (setting [10]), 0.0 µg; in data set [3] (setting [10]), 11.1 to 15.0 µg; in [4] (setting [10]), 0.0 µg; in [5] (setting [10]) it was 12.9 to 17.0 µg; in data set [6] (setting [10]) it was 16.5 to 20.1 µg. Besides, the “Content in cell of the added sugar” value lay in the range of 16.8 to 19.0 µg in data set [7] (setting [10]), 16.7 to 20.7 µg in data set [8] (setting [10]) and 20.4 to 21.3 µg in data set [9] (setting [10]).

In the case of `O=C[C@H](O)[C@@H](O)[C@H](O)[C@H](O)CO` [D-glucose], the “D-glucose content in cell” value in data set [1] came out at 16.7 µg; in data set [2], 4.0 µg; in data set [3], 7.2 µg; in data set [4], 6.5 µg; in data set [5], 4.4 µg; in [6] it was 6.7 µg. Besides, the “D-glucose content in cell” value was 5.6 µg in data set [7], 4.4 µg in data set [8] and 8.4 µg in data set [9].

For the compound `O=C(CO)[C@@H](O)[C@@H](O)[C@@H](O)CO` [L-allulose], the “D-glucose content in cell” value came to 3.9 µg in data set [1]; 0.5 µg in data set [2]; 1.9 µg in data set [3]; 10.2 µg in data set [4]; 2.5 µg in data set [5]; 1.5 µg in data set [6]. Besides, the “D-glucose content in cell” value in data set [7] worked out at 2.1 µg; in data set [8], 2.3 µg; in data set [9] it was 1.7 µg.

`OC[C@@H](O)[C@@H](O)[C@@H](O)[C@@H](O)CO` [allitol]: the “D-glucose content in cell” value in [1] was 3.6 µg; in data set [2], 0.5 µg; in data set [3] it was 2.4 µg; in data set [4] it was 9.2 µg; in data set [5] it was 4.5 µg; in data set [6], 2.1 µg. The “D-glucose content in cell” value in data set [7] turned out to be 1.8 µg; in [8] it was 2.4 µg; in [9] it was 4.3 µg.
